From the OligoGym collection
Oligonucleotides are given in HELM: sugar(base)linkage, 5' to 3'; d 2'-deoxyribose, r ribose, m 2'-O-methylribose, p phosphate. ss, as = sense and antisense strand

Biological target: UBE2N
Experiment: reporter assay of Huesken 2005
Conditions: siRNA
Also: test concentration or dose not given here.

Substance	normalised inhibition (eCFP-eYFP dual reporter) [%]
RNA1{r(U)p.r(A)p.r(U)p.r(U)p.r(C)p.r(C)p.r(U)p.r(U)p.r(C)p.r(C)p.r(A)p.r(G)p.r(A)p.r(A)p.r(G)p.r(A)p.r(A)p.r(U)p.r(A)p.d(T)p.d(T)}|RNA2{r(U)p.r(A)p.r(U)p.r(U)p.r(C)p.r(U)p.r(U)p.r(C)p.r(U)p.r(G)p.r(G)p.r(A)p.r(A)p.r(G)p.r(G)p.r(A)p.r(A)p.r(U)p.r(A)p.d(G)p.d(T)}$$$RNA1{StrandType:ss}|RNA2{StrandType:as}$	83
RNA1{r(U)p.r(C)p.r(A)p.r(U)p.r(G)p.r(U)p.r(G)p.r(G)p.r(U)p.r(C)p.r(A)p.r(U)p.r(U)p.r(G)p.r(C)p.r(U)p.r(G)p.r(G)p.r(C)p.d(T)p.d(T)}|RNA2{r(G)p.r(C)p.r(C)p.r(A)p.r(G)p.r(C)p.r(A)p.r(A)p.r(U)p.r(G)p.r(A)p.r(C)p.r(C)p.r(A)p.r(C)p.r(A)p.r(U)p.r(G)p.r(A)p.d(A)p.d(A)}$$$RNA1{StrandType:ss}|RNA2{StrandType:as}$	50.6
RNA1{r(U)p.r(C)p.r(C)p.r(A)p.r(G)p.r(A)p.r(U)p.r(G)p.r(A)p.r(U)p.r(C)p.r(C)p.r(A)p.r(U)p.r(U)p.r(A)p.r(G)p.r(C)p.r(A)p.d(T)p.d(T)}|RNA2{r(U)p.r(G)p.r(C)p.r(U)p.r(A)p.r(A)p.r(U)p.r(G)p.r(G)p.r(A)p.r(U)p.r(C)p.r(A)p.r(U)p.r(C)p.r(U)p.r(G)p.r(G)p.r(A)p.d(T)p.d(T)}$$$RNA1{StrandType:ss}|RNA2{StrandType:as}$	85.9
RNA1{r(U)p.r(C)p.r(C)p.r(C)p.r(A)p.r(A)p.r(U)p.r(C)p.r(C)p.r(A)p.r(G)p.r(A)p.r(U)p.r(G)p.r(A)p.r(U)p.r(C)p.r(C)p.r(A)p.d(T)p.d(T)}|RNA2{r(U)p.r(G)p.r(G)p.r(A)p.r(U)p.r(C)p.r(A)p.r(U)p.r(C)p.r(U)p.r(G)p.r(G)p.r(A)p.r(U)p.r(U)p.r(G)p.r(G)p.r(G)p.r(A)p.d(G)p.d(C)}$$$RNA1{StrandType:ss}|RNA2{StrandType:as}$	78.4
RNA1{r(U)p.r(C)p.r(C)p.r(G)p.r(C)p.r(A)p.r(C)p.r(A)p.r(G)p.r(U)p.r(U)p.r(C)p.r(U)p.r(G)p.r(C)p.r(U)p.r(A)p.r(U)p.r(C)p.d(T)p.d(T)}|RNA2{r(G)p.r(A)p.r(U)p.r(A)p.r(G)p.r(C)p.r(A)p.r(G)p.r(A)p.r(A)p.r(C)p.r(U)p.r(G)p.r(U)p.r(G)p.r(C)p.r(G)p.r(G)p.r(A)p.d(T)p.d(C)}$$$RNA1{StrandType:ss}|RNA2{StrandType:as}$	63.5
RNA1{r(U)p.r(C)p.r(C)p.r(U)p.r(U)p.r(C)p.r(C)p.r(A)p.r(G)p.r(A)p.r(A)p.r(G)p.r(A)p.r(A)p.r(U)p.r(A)p.r(C)p.r(C)p.r(C)p.d(T)p.d(T)}|RNA2{r(G)p.r(G)p.r(G)p.r(U)p.r(A)p.r(U)p.r(U)p.r(C)p.r(U)p.r(U)p.r(C)p.r(U)p.r(G)p.r(G)p.r(A)p.r(A)p.r(G)p.r(G)p.r(A)p.d(A)p.d(T)}$$$RNA1{StrandType:ss}|RNA2{StrandType:as}$	36.9
RNA1{r(U)p.r(G)p.r(A)p.r(A)p.r(A)p.r(G)p.r(A)p.r(U)p.r(A)p.r(A)p.r(G)p.r(U)p.r(G)p.r(G)p.r(U)p.r(C)p.r(C)p.r(C)p.r(C)p.d(T)p.d(T)}|RNA2{r(G)p.r(G)p.r(G)p.r(G)p.r(A)p.r(C)p.r(C)p.r(A)p.r(C)p.r(U)p.r(U)p.r(A)p.r(U)p.r(C)p.r(U)p.r(U)p.r(U)p.r(C)p.r(A)p.d(A)p.d(A)}$$$RNA1{StrandType:ss}|RNA2{StrandType:as}$	34.5
RNA1{r(U)p.r(G)p.r(A)p.r(U)p.r(C)p.r(C)p.r(A)p.r(U)p.r(U)p.r(A)p.r(G)p.r(C)p.r(A)p.r(A)p.r(A)p.r(U)p.r(G)p.r(A)p.r(U)p.d(T)p.d(T)}|RNA2{r(A)p.r(U)p.r(C)p.r(A)p.r(U)p.r(U)p.r(U)p.r(G)p.r(C)p.r(U)p.r(A)p.r(A)p.r(U)p.r(G)p.r(G)p.r(A)p.r(U)p.r(C)p.r(A)p.d(T)p.d(C)}$$$RNA1{StrandType:ss}|RNA2{StrandType:as}$	70.2
RNA1{r(U)p.r(G)p.r(G)p.r(C)p.r(A)p.r(U)p.r(C)p.r(A)p.r(A)p.r(A)p.r(G)p.r(C)p.r(C)p.r(G)p.r(A)p.r(A)p.r(C)p.r(C)p.r(A)p.d(T)p.d(T)}|RNA2{r(U)p.r(G)p.r(G)p.r(U)p.r(U)p.r(C)p.r(G)p.r(G)p.r(C)p.r(U)p.r(U)p.r(U)p.r(G)p.r(A)p.r(U)p.r(G)p.r(C)p.r(C)p.r(A)p.d(G)p.d(G)}$$$RNA1{StrandType:ss}|RNA2{StrandType:as}$	81.6
RNA1{r(U)p.r(U)p.r(C)p.r(A)p.r(U)p.r(G)p.r(U)p.r(G)p.r(G)p.r(U)p.r(C)p.r(A)p.r(U)p.r(U)p.r(G)p.r(C)p.r(U)p.r(G)p.r(G)p.d(T)p.d(T)}|RNA2{r(C)p.r(C)p.r(A)p.r(G)p.r(C)p.r(A)p.r(A)p.r(U)p.r(G)p.r(A)p.r(C)p.r(C)p.r(A)p.r(C)p.r(A)p.r(U)p.r(G)p.r(A)p.r(A)p.d(A)p.d(A)}$$$RNA1{StrandType:ss}|RNA2{StrandType:as}$	39.5
RNA1{r(U)p.r(U)p.r(G)p.r(C)p.r(U)p.r(G)p.r(G)p.r(C)p.r(C)p.r(C)p.r(U)p.r(C)p.r(A)p.r(G)p.r(G)p.r(A)p.r(U)p.r(U)p.r(C)p.d(T)p.d(T)}|RNA2{r(G)p.r(A)p.r(A)p.r(U)p.r(C)p.r(C)p.r(U)p.r(G)p.r(A)p.r(G)p.r(G)p.r(G)p.r(C)p.r(C)p.r(A)p.r(G)p.r(C)p.r(A)p.r(A)p.d(T)p.d(G)}$$$RNA1{StrandType:ss}|RNA2{StrandType:as}$	50.2
RNA1{r(U)p.r(U)p.r(G)p.r(G)p.r(G)p.r(A)p.r(A)p.r(G)p.r(A)p.r(A)p.r(U)p.r(A)p.r(U)p.r(G)p.r(U)p.r(C)p.r(U)p.r(A)p.r(G)p.d(T)p.d(T)}|RNA2{r(C)p.r(U)p.r(A)p.r(G)p.r(A)p.r(C)p.r(A)p.r(U)p.r(A)p.r(U)p.r(U)p.r(C)p.r(U)p.r(U)p.r(C)p.r(C)p.r(C)p.r(A)p.r(A)p.d(C)p.d(T)}$$$RNA1{StrandType:ss}|RNA2{StrandType:as}$	52.8
RNA1{r(U)p.r(U)p.r(U)p.r(A)p.r(A)p.r(A)p.r(C)p.r(U)p.r(U)p.r(G)p.r(A)p.r(A)p.r(C)p.r(U)p.r(A)p.r(U)p.r(U)p.r(C)p.r(C)p.d(T)p.d(T)}|RNA2{r(G)p.r(G)p.r(A)p.r(A)p.r(U)p.r(A)p.r(G)p.r(U)p.r(U)p.r(C)p.r(A)p.r(A)p.r(G)p.r(U)p.r(U)p.r(U)p.r(A)p.r(A)p.r(A)p.d(A)p.d(G)}$$$RNA1{StrandType:ss}|RNA2{StrandType:as}$	29.9
RNA1{r(U)p.r(U)p.r(U)p.r(C)p.r(A)p.r(U)p.r(G)p.r(U)p.r(G)p.r(G)p.r(U)p.r(C)p.r(A)p.r(U)p.r(U)p.r(G)p.r(C)p.r(U)p.r(G)p.d(T)p.d(T)}|RNA2{r(C)p.r(A)p.r(G)p.r(C)p.r(A)p.r(A)p.r(U)p.r(G)p.r(A)p.r(C)p.r(C)p.r(A)p.r(C)p.r(A)p.r(U)p.r(G)p.r(A)p.r(A)p.r(A)p.d(A)p.d(T)}$$$RNA1{StrandType:ss}|RNA2{StrandType:as}$	39.8
